Measured values reported in patent US20240228504A1, “SUBSTITUTED TRICYCLIC AMIDES, ANALOGUES THEREOF, AND METHODS USING SAME” (Arbutus Biopharma Corporation, priority 2020, published 2024).

What follows are molecules tested on HBV rcDNA in HepDE19 cells (assay: HepDE19 assay with bDNA quantitation of HBV rcDNA). Details: Hepatitis B virus, HepDE19, HepDE19 assay, inhibition of rcDNA formation, bDNA quantitation; read-out: DE-19bDNA EC50.
Format: cell-based, hepatitis B virus

Going from CN(C(=O)c1cc2cc(OC(F)(F)F)ccc2[nH]1)[C@@H]1COCc2[nH]c(=O)c3cc(F)c(F)cc3c21 [Compound 327, (S)-N-(8,9-Difluoro-6-oxo-1,4,5,6-tetrahydro-2H-pyrano[3,4-c]isoquinolin-1-yl)-N-methyl-5-(trifluoromethoxy)-1H-indole-2-carboxamide] to CN(C(=O)c1cc2c(OC(F)(F)F)cccc2[nH]1)[C@@H]1COCc2[nH]c(=O)c3cc(F)c(F)cc3c21 [Compound 363, (S)-N-(8,9-Difluoro-6-oxo-1,4,5,6-tetrahydro-2H-pyrano[3,4-c]isoquinolin-1-yl)-N-methyl-4-(trifluoromethoxy)-1H-indole-2-carboxamide], the EC50 falls from 1200 nM to 20 nM (60-fold).

First: CCc1ccc2[nH]c(C(=O)N(C)[C@@H]3COCc4[nH]c(=O)c5cc(F)c(F)cc5c43)cc2c1 [Compound 328, (S)-N-(8,9-Difluoro-6-oxo-1,4,5,6-tetrahydro-2H-pyrano[3,4-c]isoquinolin-1-yl)-5-ethyl-N-methyl-1H-indole-2-carboxamide]
Second: CN(C(=O)c1cc2cc(C#N)ccc2[nH]1)[C@@H]1COCc2[nH]c(=O)c3cc(F)c(F)cc3c21 [Compound 345, (S)-5-Cyano-N-(8,9-difluoro-6-oxo-1,4,5,6-tetrahydro-2H-pyrano[3,4-c]isoquinolin-1-yl)-N-methyl-1H-indole-2-carboxamide]
The EC50 of the first is 100-fold higher: 3100 nM for the first, 30 nM for the second.

First: COc1cccc2[nH]c(C(=O)N(C)[C@@H]3COCc4[nH]c(=O)c5cc(F)c(F)cc5c43)cc12 [Compound 329, (S)-N-(8,9-Difluoro-6-oxo-1,4,5,6-tetrahydro-2H-pyrano[3,4-c]isoquinolin-1-yl)-4-methoxy-N-methyl-1H-indole-2-carboxamide]
Second: Cc1cccc2[nH]c(C(=O)N(C)[C@@H]3COCc4[nH]c(=O)c5cc(F)c(F)cc5c43)cc12 [Compound 330, (S)-N-(8,9-Difluoro-6-oxo-1,4,5,6-tetrahydro-2H-pyrano[3,4-c]isoquinolin-1-yl)-N,4-dimethyl-1H-indole-2-carboxamide]
The EC50 of the first is 26-fold higher: 260 nM for the first, 10 nM for the second. The second is the more potent here.

CCC(CC)C(=O)OC1OC[C@@H](N(C)C(=O)c2cc3cc(F)c(F)cc3[nH]2)c2c1[nH]c(=O)c1cc(F)c(F)cc21 (stereo partly drawn) [Compound 331, (1S)-1-(5,6-Difluoro-N-methyl-1H-indole-2-carboxamido)-8,9-difluoro-6-oxo-1,4,5,6-tetrahydro-2H-pyrano[3,4-c]isoquinolin-4-yl 2-ethylbutanoate] and CCc1cc(F)cc2[nH]c(C(=O)N(C)[C@@H]3COCc4[nH]c(=O)c5cc(F)c(F)cc5c43)cc12 [Compound 342, (S)-N-(8,9-Difluoro-6-oxo-1,4,5,6-tetrahydro-2H-pyrano[3,4-c]isoquinolin-1-yl)-4-ethyl-6-fluoro-N-methyl-1H-indole-2-carboxamide] are the same in EC50: 10 nM for the first, 10 nM for the second.

Compared with CN(C(=O)c1cc2oc(Cl)cc2[nH]1)[C@@H]1COCc2[nH]c(=O)c3cc(F)c(F)cc3c21 [Compound 332, (S)-2-Chloro-N-(8,9-difluoro-6-oxo-1,4,5,6-tetrahydro-2H-pyrano[3,4-c]isoquinolin-1-yl)-N-methyl-4H-furo[3,2-b]pyrrole-5-carboxamide], CN(C(=O)c1cc2sc(Cl)cc2[nH]1)[C@@H]1COCc2[nH]c(=O)c3cc(F)c(F)cc3c21 [Compound 349, (S)-2-Chloro-N-(8,9-difluoro-6-oxo-1,4,5,6-tetrahydro-2H-pyrano[3,4-c]isoquinolin-1-yl)-N-methyl-4H-thieno[3,2-b]pyrrole-5-carboxamide] is 4-fold lower in EC50: 40 nM for the first, 10 nM for the second. The second is the more potent here.

Compared with CN(C(=O)c1cc2c(C#N)cc(F)cc2[nH]1)[C@@H]1COCc2[nH]c(=O)c3cc(F)c(F)cc3c21 [Compound 341, (S)-4-Cyano-N-(8,9-difluoro-6-oxo-1,4,5,6-tetrahydro-2H-pyrano[3,4-c]isoquinolin-1-yl)-6-fluoro-N-methyl-1H-indole-2-carboxamide], CN(C(=O)c1cc2c(Cl)cc(F)cc2[nH]1)[C@@H]1COCc2[nH]c(=O)c3cc(F)c(F)cc3c21 [Compound 343, (S)-4-Chloro-N-(8,9-difluoro-6-oxo-1,4,5,6-tetrahydro-2H-pyrano[3,4-c]isoquinolin-1-yl)-6-fluoro-N-methyl-1H-indole-2-carboxamide] is 3-fold lower in EC50: 30 nM for the first, 10 nM for the second. The second is the more potent here.

Compared with Cc1cc(F)cc2[nH]c(C(=O)N(C)[C@@H]3COCc4[nH]c(=O)c5cc(F)c(F)cc5c43)cc12 [Compound 344, (S)-N-(8,9-Difluoro-6-oxo-1,4,5,6-tetrahydro-2H-pyrano[3,4-c]isoquinolin-1-yl)-6-fluoro-N,4-dimethyl-1H-indole-2-carboxamide], CN(C(=O)c1cc2c(CO)cc(F)cc2[nH]1)[C@@H]1COCc2[nH]c(=O)c3cc(F)c(F)cc3c21 [Compound 355, (S)-N-(8,9-Difluoro-6-oxo-1,4,5,6-tetrahydro-2H-pyrano[3,4-c]isoquinolin-1-yl)-6-fluoro-4-(hydroxymethyl)-N-methyl-1H-indole-2-carboxamide] is 2-fold higher in EC50: 10 nM for the first, 20 nM for the second. The first is the more potent here.

Going from CN(C(=O)c1cc2cc(S(C)(=O)=O)ccc2[nH]1)[C@@H]1COCc2[nH]c(=O)c3cc(F)c(F)cc3c21 [Compound 346, (S)-N-(8,9-Difluoro-6-oxo-1,4,5,6-tetrahydro-2H-pyrano[3,4-c]isoquinolin-1-yl)-N-methyl-5-(methylsulfonyl)-1H-indole-2-carboxamide] to COc1ccc2cc(C(=O)N(C)[C@@H]3COCc4[nH]c(=O)c5cc(F)c(F)cc5c43)[nH]c2c1 [Compound 364, (S)-N-(8,9-Difluoro-6-oxo-1,4,5,6-tetrahydro-2H-pyrano[3,4-c]isoquinolin-1-yl)-6-methoxy-N-methyl-1H-indole-2-carboxamide], the EC50 falls from 6700 nM to 30 nM (220-fold). The second is the more potent here.

Compared with CN(C(=O)c1cc2c(Cl)cccc2[nH]1)[C@@H]1COCc2[nH]c(=O)c3cc(F)c(F)cc3c21 [Compound 347, (S)-4-Chloro-N-(8,9-difluoro-6-oxo-1,4,5,6-tetrahydro-2H-pyrano[3,4-c]isoquinolin-1-yl)-N-methyl-1H-indole-2-carboxamide], CN(C(=O)c1cc2scc(Cl)c2[nH]1)[C@@H]1COCc2[nH]c(=O)c3cc(F)c(F)cc3c21 [Compound 350, (S)-3-chloro-N-(8,9-difluoro-6-oxo-1,4,5,6-tetrahydro-2H-pyrano[3,4-c]isoquinolin-1-yl)-N-methyl-4H-thieno[3,2-b]pyrrole-5-carboxamide] is 7-fold higher in EC50: 10 nM for the first, 70 nM for the second. The first is the more potent here.

Compared with CN(C(=O)c1cc2ccc(Br)cn2c1)[C@@H]1COCc2[nH]c(=O)c3cc(F)c(F)cc3c21 [Compound 348, (S)-6-Bromo-N-(8,9-difluoro-6-oxo-1,4,5,6-tetrahydro-2H-pyrano[3,4-c]isoquinolin-1-yl)-N-methylindolizine-2-carboxamide], CN(C(=O)c1ccc2ccc(Cl)n2c1)[C@@H]1COCc2[nH]c(=O)c3cc(F)c(F)cc3c21 [Compound 366, (S)-3-Chloro-N-(8,9-difluoro-6-oxo-1,4,5,6-tetrahydro-2H-pyrano[3,4-c]isoquinolin-1-yl)-N-methylindolizine-6-carboxamide] is 2.5-fold higher in EC50: 40 nM for the first, 100 nM for the second.

Going from CN(C(=O)c1cc2cncc(Br)c2o1)[C@@H]1COCc2[nH]c(=O)c3cc(F)c(F)cc3c21 [Compound 356, (S)-7-Bromo-N-(8,9-difluoro-6-oxo-1,4,5,6-tetrahydro-2H-pyrano[3,4-c]isoquinolin-1-yl)-N-methylfuro[3,2-c]pyridine-2-carboxamide] to CN(C(=O)c1cnc(C(F)(F)F)c(Br)c1)[C@@H]1COCc2[nH]c(=O)c3cc(F)c(F)cc3c21 [Compound 365, (S)-5-Bromo-N-(8,9-difluoro-6-oxo-1,4,5,6-tetrahydro-2H-pyrano[3,4-c]isoquinolin-1-yl)-N-methyl-6-(trifluoromethyl)nicotinamide], the EC50 falls from 1500 nM to 60 nM (25-fold).

Going from CN(C(=O)c1ccc2c(Cl)nn(C(F)F)c2c1)[C@@H]1COCc2[nH]c(=O)c3cc(F)c(F)cc3c21 [Compound 357, (S)-3-Chloro-N-(8,9-difluoro-6-oxo-1,4,5,6-tetrahydro-2H-pyrano[3,4-c]isoquinolin-1-yl)-1-(difluoromethyl)-N-methyl-1H-indazole-6-carboxamide] to CN(C(=O)c1ccc2c(c1)c(Cl)nn2C(F)F)[C@@H]1COCc2[nH]c(=O)c3cc(F)c(F)cc3c21 [Compound 359, (S)-3-chloro-N-(8,9-difluoro-6-oxo-1,4,5,6-tetrahydro-2H-pyrano[3,4-c]isoquinolin-1-yl)-1-(difluoromethyl)-N-methyl-1H-indazole-5-carboxamide], the EC50 falls from 30 nM to 10 nM (3-fold).

Compared with CN(C(=O)c1ccc2c(Cl)n(C(F)F)nc2c1)[C@@H]1COCc2[nH]c(=O)c3cc(F)c(F)cc3c21 [Compound 358, (S)-3-Chloro-N-(8,9-difluoro-6-oxo-1,4,5,6-tetrahydro-2H-pyrano[3,4-c]isoquinolin-1-yl)-2-(difluoromethyl)-N-methyl-2H-indazole-6-carboxamide], CN(C(=O)c1ccc2nn(C(F)F)c(Cl)c2c1)[C@@H]1COCc2[nH]c(=O)c3cc(F)c(F)cc3c21 [Compound 360, (S)-3-Chloro-N-(8,9-difluoro-6-oxo-1,4,5,6-tetrahydro-2H-pyrano[3,4-c]isoquinolin-1-yl)-2-(difluoromethyl)-N-methyl-2H-indazole-5-carboxamide] is 5.7-fold lower in EC50: 680 nM for the first, 120 nM for the second. The second is the more potent here.

First: CN(C(=O)c1ccc(Cl)c(Cl)c1)[C@@H]1COCc2[nH]c(=O)c3cc(F)c(F)cc3c21 [Compound 361, (S)-3,4-Dichloro-N-(8,9-difluoro-6-oxo-1,4,5,6-tetrahydro-2H-pyrano[3,4-c]isoquinolin-1-yl)-N-methylbenzamide]
Second: COc1c2ccc(C(=O)N(C)[C@@H]3COCc4[nH]c(=O)c5cc(F)c(F)cc5c43)cc2nn1C(F)F [Compound 367, (S)-N-(8,9-Difluoro-6-oxo-1,4,5,6-tetrahydro-2H-pyrano[3,4-c]isoquinolin-1-yl)-2-(difluoromethyl)-3-methoxy-N-methyl-2H-indazole-6-carboxamide]
The EC50 of the first is 460-fold lower: 10 nM for the first, 4600 nM for the second. The first is the more potent here.

In the case of CN(C(=O)c1cc2c(NS(C)(=O)=O)cc(F)cc2[nH]1)[C@@H]1COCc2[nH]c(=O)c3cc(F)c(F)cc3c21 [Compound 362, (S)-N-(8,9-Difluoro-6-oxo-1,4,5,6-tetrahydro-2H-pyrano[3,4-c]isoquinolin-1-yl)-6-fluoro-N-methyl-4-(methylsulfonamido)-1H-indole-2-carboxamide], the EC50 is reported as 14000 nM.
